Source: paper PMC8951016, “Computational Design and Biological Evaluation of Analogs of Lupin Peptide P5 Endowed with Dual PCSK9/HMG-CoAR Inhibiting Activity” (Pharmaceutics, 2022)

What was measured:
[1] = tested on: LDLR on HepG2 cell surface; assay: In-cell western (ICW), LDLR on HepG2 surface in the presence of PCSK9; format: cell-based, human; conditions: PCSK9 4 μg/mL, 2 h; vs untreated control cells; p < 0.001
Procedure: For the experiments, a total of 3 × 10^4 HepG2 cells/well were seeded in 96-well plates and treated with 4.0 μg/mL PCSK9-WT and 4.0 μg/mL PCSK9 + peptides P5 and/or P5 analogs (50 µM) and vehicle (H2O) for 2 h at 37 °C under 5% CO2 atmosphere. Thus, cells underwent to ICW assay following conditions already optimized. See Supplementary Materials for detailed information. […]
cLex Co., Nagano, Japan). The peptides (P5, P5-Best, P-H6A, and P5-S7A) were synthe-sized by the company GeneScript (Piscataway, NJ, USA) at >95% purity. The antibody against HMG-CoAR was bought from Abcam (Cambridge, UK). […]
HMG-CoAR Aactivity Assay. […] Subsequently, the samples were mixed and the absorbance at 340 nm read by the microplate reader Synergy H1 (Winooski, VT, USA) at time 0 and 10 min. The HMG-CoAR-dependent oxidation of NADPH and the inhibition properties of peptides were measured by absorbance reduction, which is directly proportional to enzyme activ- […]
In Vitro PCSK9-LDLR Binding Assay. […] The reaction was stopped with 2.0 M sulfuric acid and the absorbance at 450nm was measured using the Synergy H1 fluorescent plate reader […]

LDL uptake, HepG2 cells [2] = assay: Fluorescent LDL uptake in HepG2 cells in the presence of PCSK9; format: cell-based, human; conditions: PCSK9 4 μg/mL, 2 h; vs untreated control cells; p < 0.05
Procedure: HepG2 cells (3 × 10^4/well) were seeded in 96-well plates and kept in complete growth medium for 2 days before treatment. The third day, cells were washed with PBS and then starved overnight (O/N) in DMEM without FBS and antibiotics. After starvation, they were treated with 4.0 μg/mL PCSK9 and 4.0 μg/mL PCSK9 + P5 and P5 analogs peptides (50 µM), and vehicle (H2O) for 2 h with at 37 °C under 5% CO2 atmosphere. Fluorescent LDL-uptake was finally assessed following optimized protocol. See Supplementary Materials for further details.
PBS for 1.5 h at RT. LDLR primary antibody solution (1:3000 in 5% BSA in PBS, 25 µL/well) was incubated O/N at +4 °C. […] The reaction was stopped with 2 M H2SO4 and then the absorbance at 450 nm was measured using the microplate reader Synergy H1 (Winoo-ski, VT, USA). After the read, cells were stained by adding 1 X Janus Green stain, incubat-ing for 5 min at RT. […]
Afterward 100 µL 0.5 M HCl for well were added and incubated for 10 min. After 10 sec-onds shaking, the OD at 595 nm was measured using the microplate reader Synergy H1 […]
Fluorescent LDL Uptake. […] The degree of LDL uptake was measured using the Synergy H1 fluo-rescent plate reader (Winooski, VT, USA) (excitation and emission wavelengths 540 and 570 nm, respectively). Fluorescent LDL-uptake was finally assessed following optimized […]

LDL uptake, HepG2 cells [3] = conditions: cited from earlier work
[4] = tested on: LDLR on HepG2 cell surface; conditions: cellular level; cited from earlier work
LDLR = tested on: LDLR; parameters: method as in 3 sources, ref 48 = [48]; doi:10.1111/jfbc.12757; 48. Lammi C. Zanoni C. Arnoldi A. Aiello G. […] (P3), a peptide from lupin protein, absorbed by Caco-2 cells, modulates cholesterol metabolism in HepG2 cells via SREBP-1 activation J. Food B ||| ref 22 = [22]; doi:10.1016/j.jff.2017.02.009; 22. Zanoni C. Aiello G. Arnoldi A. Lammi C. Investigations on the hypocholesterolaemic activity of […] and LTFPGSAED, two peptides from lupin β-conglutin: Focus on LDLR and PCSK9 pathways J. Fu ||| ref 24 = [24]; PMID 33808034; doi:10.3390/nu13030863; 24. Lammi C. Aiello G. Bollati C. Li J. Bartolomei M. Ranaldi G. Ferruzza S. Fassi E.M.A. Grazioso G. Sambuy Y. Trans-Epithelial Transport, Metabolism, and Biological Activity Assessment of the Multi-; conditions: via compensatory upregulation of SREBP-1; cited from earlier work
SREBP-2 = conditions: cited from earlier work
Procedure: Further experiments were performed to verify the ability of these P5 analogs to modulate the LDLR pathway in HepG2 cells.

[5] = target: T1, HMG-CoAR (catalytic domain) (Homo sapiens, UniProt P04035); conditions: cited from earlier work
T1 construct: finally the HMG-CoAR (cata- lytic domain) (2 µL); purchased Sigma-Aldrich
T1 sequence (P04035 426-888 limits assumed): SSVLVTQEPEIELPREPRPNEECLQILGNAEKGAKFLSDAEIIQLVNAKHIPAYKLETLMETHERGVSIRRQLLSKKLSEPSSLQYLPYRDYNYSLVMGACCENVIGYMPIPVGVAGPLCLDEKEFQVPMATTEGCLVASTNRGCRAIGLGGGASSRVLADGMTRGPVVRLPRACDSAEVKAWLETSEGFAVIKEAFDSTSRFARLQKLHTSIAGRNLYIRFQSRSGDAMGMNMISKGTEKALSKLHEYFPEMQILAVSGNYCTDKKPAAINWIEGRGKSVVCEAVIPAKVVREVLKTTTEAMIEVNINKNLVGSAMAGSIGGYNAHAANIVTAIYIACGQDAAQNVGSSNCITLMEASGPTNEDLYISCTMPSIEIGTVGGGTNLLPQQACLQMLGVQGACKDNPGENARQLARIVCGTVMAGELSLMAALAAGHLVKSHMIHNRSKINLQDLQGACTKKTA

PCSK9 = tested on: PCSK9; parameters: method as in 3 sources, ref 49 = [49]; PMID 35011066; doi:10.3390/nu14010193; 49. Macchi C. Greco M.F. Ferri N. Magni P. Arnoldi A. Corsini A. Sirtori C.R. Ruscica M. Lammi C. Impact of Soy β-Conglycinin Peptides on PCSK9 Protein Expression in HepG2 Cells Nutrients 2021 14 193 ||| ref 22 = [22]; doi:10.1016/j.jff.2017.02.009; 22. Zanoni C. Aiello G. Arnoldi A. Lammi C. Investigations on the hypocholesterolaemic activity of […] and LTFPGSAED, two peptides from lupin β-conglutin: Focus on LDLR and PCSK9 pathways J. Fu ||| ref 24 = [24]; PMID 33808034; doi:10.3390/nu13030863; 24. Lammi C. Aiello G. Bollati C. Li J. Bartolomei M. Ranaldi G. Ferruzza S. Fassi E.M.A. Grazioso G. Sambuy Y. Trans-Epithelial Transport, Metabolism, and Biological Activity Assessment of the Multi-; conditions: 250 µM, via modulation of HNF1-α; cited from earlier work
mature PCSK9 (secreted) = tested on: mature PCSK9 (secreted); parameters: method as in PMID 35011066; conditions: 250 µM, via modulation of HNF1-α; cited from earlier work

Substance: PCSK9: PCSK9 added at 4 µg/mL to HepG2 cells
- decrease of LDLR level by PCSK9 alone [1]: 25.4 ± 1.6%
- reduction in uptake of fluorescent LDL by PCSK9 alone (LDL uptake, HepG2 cells [2]): 43.6 ± 9.6%

Substance: TVFTSWEEYLDWV [Pep2-8]
- restoration of hepatocyte LDL absorption vs P5 analogs (LDL uptake, HepG2 cells [3]): less efficient than P5 analogs
- restoration of LDLR protein levels vs P5 analogs [4]: less efficient than P5 analogs

Substance: YDFYPSSTKDQQS [Peptide P3, a peptide from lupin protein]
- LDLR protein levels (P3, words) (LDLR): increase in the LDLR protein levels
- SREBP-2 activation (P3, words) (SREBP-2): without SREBP-2 activation
- HMG-CoAR activity (P3, words) [5]: inhibits HMG-CoAR activity

Substance: YVVNPDNNEN [peptide from soybean β-Conglycinin]
- PCSK9 protein level (YVVNPDNNEN, words) (PCSK9): reduces the PCSK9 protein level
- PCSK9 secretion (YVVNPDNNEN, words) (mature PCSK9 (secreted)): reduces the PCSK9 protein level and its secretion
- HMG-CoAR inhibition (YVVNPDNNEN, words) [5]: able to inhibit the HMG-CoAR activity
